We go through 22 compounds from patent US6451814B1, “Heterocyclic β-3 adrenergic receptor agonists” (Wyeth, priority 2000, dated 2002).

Data set [1] addresses T1, human β3-adrenergic receptor (Homo sapiens, UniProt P13945).
T1 construct: Full length β3 AR clones (402 amino acids) containing the last 6 amino acids of hβ3—AR are prepared; expressed in transfected cells; host or cells: CHO cells
Kind of data set: cAMP response (SPA kit) in CHO cells transfected with human β3 adrenergic receptor. The note with it: for EC50: CHO cells expressing human β3-AR, 10^-9 M to 10^-5 M, 30 min at 37° C., cAMP by SPA, read-out: EC50(β3); for IA(β3): maximal response of compound compared to maximal response of isoproterenol at 10^-5 M, CHO cells, human β3-AR. It is filed as cell-based.

Structures are written as SMILES. Several values for one entry are separate records, joined by “and”; a condition that tells them apart may be missing. Equal values may be shown once.

T1 sequence (P13945 whole entry): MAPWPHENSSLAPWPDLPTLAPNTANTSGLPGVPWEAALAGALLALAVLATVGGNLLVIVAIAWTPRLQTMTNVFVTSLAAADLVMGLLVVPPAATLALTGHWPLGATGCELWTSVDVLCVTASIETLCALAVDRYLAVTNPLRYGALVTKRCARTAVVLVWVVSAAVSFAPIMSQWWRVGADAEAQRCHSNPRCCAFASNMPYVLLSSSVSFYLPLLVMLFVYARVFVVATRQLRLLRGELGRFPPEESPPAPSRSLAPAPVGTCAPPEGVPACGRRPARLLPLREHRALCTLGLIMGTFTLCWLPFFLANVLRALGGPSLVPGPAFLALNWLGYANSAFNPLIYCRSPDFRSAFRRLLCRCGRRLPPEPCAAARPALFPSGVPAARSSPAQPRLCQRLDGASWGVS

Take `O=C(OCc1ccc(F)cc1)N1CCC(Nc2ccc(CCNC[C@H](O)COc3ccc(O)cc3)cc2)CC1` [Example 121, 4-(4-{2-[(2S)-2-Hydroxy-3-(4-hydroxy-phenoxy)-propylamino]-ethyl}-phenylamino)-piperidine-1-carboxylic acid 4-fluoro-benzyl Ester]: the melting point (commonly the temperature of the solid-liquid transition) was in the range of 60 to 62 °C. For the same compound, in data set [1], the EC50 (usually the concentration that produces a half-maximal response) is 0.09 µM and the “IA(β3)” value was 0.69.

`NC(=O)N1CCC(Nc2ccc(CCNC[C@H](O)COc3ccc(O)cc3)cc2)CC1` [Example 18, 4-(4-{2-[(2S)-2-Hydroxy-3-(4-hydroxy-phenoxy)-propylamino]-ethyl}-phenylamino)-piperidine-1-carboxylic Acid Amide] gave a melting point of 84 to 89 °C. The “IA(β3)” value in data set [1] was 1.

In turn, `O=C(NCc1ccccc1C(F)(F)F)N1CCC(Nc2ccc(CCNC[C@H](O)COc3ccc(O)cc3)cc2)CC1` [Example 33, 4-(4-{2-[(2S)-2-Hydroxy-3-(4-hydroxy-phenoxy)-propylamino]-ethyl}-phenylamino)-piperidine-1-carboxylic Acid 2-trifluoromethyl-benzylamide] gave a melting point of 83 to 86 °C. Moreover, in data set [1], the EC50 was 0.055 µM and the “IA(β3)” value was determined as 0.78.

Compound `O=C(NCc1ccc(F)cc1)N1CCC(Sc2ccc(CCNC[C@H](O)COc3ccc(O)cc3)cc2)CC1` [Example 42, 4-(4-{2-[(2S)-2-Hydroxy-3-(4-hydroxy-phenoxy)-propylamino]-ethyl}-phenylsulfanyl)-piperidine-1-carboxylic Acid-4-fluorobenzylamide] gave a melting point of 181 to 183 °C. In data set [1], the EC50 came to 0.095 µM and the “IA(β3)” value was 0.72.

For the compound `Cc1ccc(CCCNC(=O)N2CCC(Nc3ccc(CCNC[C@H](O)COc4ccc(O)cc4)cc3)CC2)cc1` [Example 29, 4-(4-{2-[(2S)-2-Hydroxy-3-(4-hydroxy-phenoxy)-propylamino]-ethyl}-phenylamino)-piperidine-1-carboxylic Acid (3-p-tolyl-propyl)-amide], the melting point is 69 to 72 °C. Also, in data set [1], the concentration giving a half-maximal response (EC50) was found to be 0.043 µM and the “IA(β3)” value is recorded as 1.

For the compound `O=C(NCCCCCCCCF)N1CCC(Nc2ccc(CCNC[C@H](O)COc3ccc(O)cc3)cc2)CC1` [Example 55, N-(8-Fluorooctyl)-4-[4-(2-{[(2S)-2-hydroxy-3-(4-hydroxyphenoxy)propyl]amino}ethyl)anilino]-1-piperidinecarboxamide], the melting point lay within 148 to 150 °C. Also, in data set [1], the EC50 was 0.171 µM and the “IA(β3)” value is reported as 1.07.

With `O=C(NCC(F)(F)F)N1CCC(Nc2ccc(CCNC[C@H](O)COc3ccc(O)cc3)cc2)CC1` [Example 13, 4-(4-{2-[(2S)-2-Hydroxy-3-(4-hydroxy-phenoxy)-propylamino]-ethyl}-phenylamino)-piperidine-1-carboxylic Acid (2,2,2-trifluoro-ethyl)-amide], the melting point was in the range of 89 to 94 °C. Also, in data set [1], the EC50 turned out to be 0.066 µM and the “IA(β3)” value is 0.82.

As to `O=C(NCc1ccccc1F)N1CCC(Nc2ccc(CCNC[C@H](O)COc3ccc(O)cc3)cc2)CC1` [Example 26, 4-(4-{2-[(2S)-2-Hydroxy-3-(4-hydroxy-phenoxy)-propylamino]-ethyl}-phenylamino)-piperidine-1-carboxylic Acid 2-fluoro-benzylamide], the melting point fell in the range of 79 to 84 °C. The “IA(β3)” value in data set [1] is reported as 0.91.

`O=C(NCC(c1ccccc1)c1ccccc1)N1CCC(Nc2ccc(CCNC[C@H](O)COc3ccc(O)cc3)cc2)CC1` [Example 31, 4-(4-{2-[(2S)-2-Hydroxy-3-(4-hydroxy-phenoxy)-propylamino]-ethyl}-phenylamino)-piperidine-1-carboxylic Acid (2,2-diphenyl-ethyl)-amide] yielded a melting point of 91 to 94 °C. Also, in data set [1], the EC50 was 0.136 µM and 0.068 µM; the “IA(β3)” value is 0.69 and 0.4.

In the case of `Cc1ccc(C(=O)CCNC(=O)N2CCC(Nc3ccc(CCNC[C@H](O)COc4ccc(O)cc4)cc3)CC2)cc1` [Example 28], the melting point fell in the range of 85 to 89 °C. Besides, in data set [1], the EC50 is 0.01 µM and the “IA(β3)” value was found to be 0.76.

For `O=C(NCc1c(F)cccc1F)N1CCC(Nc2ccc(CCNC[C@H](O)COc3ccc(O)cc3)cc2)CC1` [Example 32, 4-(4-{2-[(2S)-2-Hydroxy-3-(4-hydroxy-phenoxy)-propylamino]-ethyl}-phenylamino)-piperidine-1-carboxylic Acid 2,6-difluoro-benzylamide], the melting point is 80 to 84 °C. The “IA(β3)” value in data set [1] is 1.04 and 0.77.

`CCCCCCCCNC(=O)N1CCC(Nc2ccc(CCNC[C@H](O)COc3ccc(O)c4c3CCC(=O)N4)cc2)CC1` [Example 69, 4-(4-{2-[(2S)-2-Hydroxy-3-(8-hydroxy-2-oxo-1,2,3,4-tetrahydro-quinolin-5-yloxy)-propylamino]-ethyl}-phenylamino)-piperidine-1-carboxylicacid Octylamide] returned a melting point of 83 to 85 °C. For the same compound, the “IA(β3)” value in data set [1] is given as 0.67.

For the compound `O=C(NCc1cc(F)cc(F)c1)N1CCC(Nc2ccc(CCNC[C@H](O)COc3ccc(O)cc3)cc2)CC1` [Example 24, 4-(4-{2-[(2S)-2-Hydroxy-3-(4-hydroxy-phenoxy)-propylamino]-ethyl}-phenylamino)-piperidine-1-carboxylic Acid 3,5-difluoro-benzylamide], the melting point was 89 to 95 °C. Also, in data set [1], the EC50 came to 0.04 µM and the “IA(β3)” value was 0.84.

`O=C(NCc1cccc(F)c1)N1CCC(Nc2ccc(CCNC[C@H](O)COc3ccc(O)cc3)cc2)CC1` [Example 27, 4-(4-{2-[(2S)-2-Hydroxy-3-(4-hydroxy-phenoxy)-propylamino]-ethyl}-phenylamino)-piperidine-1-carboxylic Acid 3-fluoro-benzylamide] displayed a melting point of 68 to 73 °C. In data set [1], the EC50 amounted to 0.06 µM and the “IA(β3)” value was 0.86.

`CCCCCCCCNC(=O)N1CCC(S(=O)(=O)c2ccc(CCNC[C@H](O)COc3ccc(O)c(C)c3)cc2)CC1` [Example 48, 4-(4-{2-[(2S)-2-Hydroxy-3-(4-hydroxy-3-methyl-phenoxy)-propylamino]-ethyl}-benzenesulfonyl)-piperidine-1-carboxylic Acid Octylamide] yielded a melting point of 58 to 71 °C. Besides, in data set [1], the EC50 was 0.05 µM and the “IA(β3)” value came out at 0.7.

`CCOC(=O)C1CCN(C(=O)N2CCC(Nc3ccc(CCNC[C@H](O)COc4ccc(O)cc4)cc3)CC2)CC1` [Example 61, 1-[4-(4-{2-[(2S)-2-Hydroxy-3-(4-hydroxy-phenoxy)-propylamino]-ethyl}-phenylamino)-piperidine-1-carbonyl]-piperidine-4-carboxylic Acid Ethyl Ester] showed a melting point of 69 to 71 °C. For the same compound, in data set [1], the EC50 came to 0.089 µM and the “IA(β3)” value was 1.34.

In turn, `CCCCCCCCNC(=O)N1CCC(S(=O)(=O)c2ccc(CCNC[C@H](O)COc3ccc(O)cc3)cc2)CC1` [Example 47, 4-(4-{2-[(2S)-2-Hydroxy-3-(4-hydroxy-phenoxy)-propylamino]-ethyl}-benzenesulfonyl)-piperidine-1-carboxylic Acid Octylamide] returned a melting point of 52 to 56 °C. In addition, in data set [1], the EC50 amounted to 0.031 µM and the “IA(β3)” value was 1.

`O=C(NCC1CCCC1)N1CCC(Nc2ccc(CCNC[C@H](O)COc3ccc(O)cc3)cc2)CC1` [Example 70, 4-(4-{2-[(2S)-2-Hydroxy-3-(4-hydroxy-phenoxy)-propylamino]-ethyl}-phenylamino)-piperidine-1-carboxylic Acid Cyclopentylmethyl-amide] yielded a melting point of 76 to 78 °C. Also, in data set [1], the half-maximal effective concentration (EC50) turned out to be 0.106 µM and the “IA(β3)” value came out at 1.

`COc1cccc(CNC(=O)N2CCC(Nc3ccc(CCNC[C@H](O)COc4ccc(O)cc4)cc3)CC2)c1OC` [Example 25, 4-(4-{2-[(2S)-2-Hydroxy-3-(4-hydroxy-phenoxy)-propylamino]-ethyl}-phenylamino)-piperidine-1-carboxylic Acid 2,3-dimethoxy-benzylamide] came in with a melting point of 87 to 91 °C. In data set [1], the EC50 was 0.064 µM and the “IA(β3)” value worked out at 0.87.

Turning to `CS(=O)(=O)Nc1cc([C@@H](O)CNCCc2ccc(NC3CCN(C(=O)NCc4cc(F)ccc4F)CC3)cc2)ccc1O` [Example 76, 4-(4-{2-[(2R)-2-Hydroxy-2-(4-hydroxY-3-methanesulfonylamino-phenyl)-ethylamino]-ethyl}-phenylamino)-piperidine-1-carboxylic Acid 2,5-difluoro-benzylamide], the melting point was in the range of 116 to 118 °C. Also, in data set [1], the “IA(β3)” value is 1.

The compound `CCCCCCCCNC(=O)N1CCC(Nc2ccc(CCNC[C@H](O)COc3ccc(O)c(F)c3)cc2)CC1` [Example 65, 4-(4-{2-[(2S)-3-(3-Fluoro-4-hydroxy-phenoxy)-2-hydroxy-propylamino]-ethyl}-phenylamino)-piperidine-1-carboxylic Acid Octylamide] yielded a melting point of 60 to 62 °C. Moreover, in data set [1], the EC50 was found to be 0.3 µM and the “IA(β3)” value is 0.57.

In turn, `CCCCCCCCNC(=O)N1CCC(Nc2ccc(CCNC[C@H](O)COc3cccc4[nH]c(=O)[nH]c34)cc2)CC1` [Example 60, 4-(4-{2-[(2S)-2-Hydroxy-3-(2-oxo-2,3-dihydro-1H-benzoimidazol-4-yloxy)-propylamino]-ethyl}-phenylamino)-piperidine-1-carboxylic Acidoctylamide] yielded a melting point of 113 to 115 °C. Besides, in data set [1], the EC50 was determined as 0.012 µM and the “IA(β3)” value is 0.45.
